Source: publication PMC10783034, “Pharmacokinetic and pharmacodynamic evaluation of the atypical tetracyclines chelocardin and amidochelocardin in murine infection models” (Microbiology Spectrum, 2023)
Values after ≈ are worked out from the molar mass of the structure shown. Values belong to the compound of their own block, whether it stands above or below them.

Assays:
E. coli ATCC 25922 [1] = assay: MIC determination; format: cell-based; settings: Escherichia coli, ATCC25922; MHB medium; read-out: MIC
Method: (§1) The assay was conducted as described previously ([54]) with the following modifications. The MIC was tested against the K. pneumoniae strain ATCC 43816 in an MHB (not cation-adjusted) medium. CHD and CDCHD were tested in concentrations ranging from 0.078 to 10 µg/mL. Moreover, the MIC was determined for the following strains: K. pneumoniae DSM-30104, E. faecium DSM-20477, S. aureus DSM-346, P. aeruginosa DSM-11128, A. baumannii DSM-30008, E. aerogenes DSM-30053, E. coli ATCC 25922, and E. coli C175-94. All strains were grown in MHB medium, except for E. faecium, which was grown in TSB. CHD, epi-CDH, and CDCHD were tested in concentrations ranging from 0.125 to 64 µg/mL as described previously ([19]).

E. coli ATCC 25922 [2] = assay: Neutropenic thigh infection model in CD-1 mice; format: in vivo; settings: 20 mg/kg IV BID, positive control
Method: (§2) The inoculum for K. pneumoniae ATCC 43816 was prepared freshly as described previously to yield 1 × 10^4 cfu/mL ([56]). The inoculum of the E. coli ATCC 25922 was diluted from a frozen stock to 1.4 × 10^6 cfu/ml. N = 6 animals per group were used for both tested strains. N = 4 mice were used in the pre-treatment group in the neutropenic thigh infection model with E. coli ATCC 25922. Mice were rendered neutropenic by administration of 150 mg/kg and 100 mg/kg cyclophosphamide intraperitoneally on days −4 and −1, respectively. On the day of infection (day 0), mice received 30 µL of the inoculum of K. pneumoniae ATCC 43816 into each lateral thigh under isoflurane anesthesia, corresponding to 6 × 10^2 cfu/mouse. In the model with E. coli, mice received 50 µL of the inoculum of E. coli into each lateral thigh under isoflurane anesthesia, corresponding to 1.4 × 10^5 cfu/mouse. Whilst still under anesthesia, mice were administered a dose of Buprenorphine (0.03 mg/kg) subcutaneously for pain relief. 24 hours after infection, mice were euthanized by slowly introducing CO2 and cardiac puncture to remove blood from the heart immediately after death. Kidneys and thighs were aseptically removed. 24 hours after infection, the clinical score of every individual animal was assessed. Clinical scoring comprises the assessment of different parameters such as spontaneous behavior, posture, appearance, and provoked behavior. Each parameter was assessed with a score of 0 to 3 (ascending severity from 0 to 3). The humane endpoint was reached when the clinical score of a single parameter was 3 or if the total clinical score was higher than 8. Whole blood was collected into Eppendorf tubes coated with 0.5 M EDTA. Organs were homogenized in 0.9% NaCl solution. Organs and blood were plated onto agar plates in duplicates in serial dilutions and incubated at 37°C for 24 hours. 25 µL per dilution of the homogenized organ was spotted onto agar plates. In addition, 1 mL of homogenized organ is streaked onto an agar plate in technical duplicates. If no single colony is observed then, this would result in 0 cfu/mL. Thus, the threshold of detection is 0 log10 cfu/g. The groups used in the different neutropenic thigh infection models are found in Tables S4 through S7. In brief, levofloxacin with 3.3 mg/kg TID IP was used as a positive control antibiotic for the K. pneumoniae model, whereas ciprofloxacin with 20 mg/kg BID IV was used for the E. coli model, respectively. The rationale for TID dosing was based on the PK/PD index of fAUC/MIC for fluoroquinolones ([57] [–] [59]). […] Moreover, CHD and CDCHD were administered at 10 mg/kg SC QID (t = 1,3,5,7 hours), 15 mg/kg SC TID (t = 1,4,7 hours), and 50 mg/kg SC QD (t = 1 hour) (Tables S5 and S6). In the E. coli neutropenic thigh infection model, CHD and CDCHD, respectively, were administered at 50 mg/kg IV QD (t = 1 hour) and 15 mg/kg IV BID (t = 1 and 6 hours) (Table S7).
(§3) For the neutropenic thigh infection model with E. coli ATCC 25922, the thighs were regarded as two independent infection sites throughout the experiment. For statistical analysis, individual thighs (left and right) were treated as separate samples although these were not completely independent values. For the neutropenic thigh infection model with K. pneumoniae ATCC 43816, the individual thighs (left and right) were treated as one sample. For the efficacy models, the non-parametric Kruskal-Wallis test was used with GraphPad Prism 9.4.1. For the ascending urinary tract infection model, an ordinary one-way ANOVA with Dunnett’s multiple comparison test was used with GraphPad Prism 9.4.1.

K. pneumoniae ATCC 43816 [3] = assay: MIC determination; format: cell-based; settings: Klebsiella pneumoniae, ATCC43816; MHB (not cation-adjusted) medium; read-out: MIC
Method: as §1

K. pneumoniae ATCC 43816 [4] = assay: Neutropenic thigh infection model in CD-1 mice; format: in vivo; settings: levofloxacin 3.3 mg/kg IP TID
Method: as §2, §3

E. coli C175-94 [5] = assay: MIC determination; format: cell-based; settings: Escherichia coli, C17594; MHB medium; read-out: MIC
Method: as §1

E. coli C175-94 [6] = assay: Ascending urinary tract infection model in OF-1 mice; format: in vivo; settings: CHD/CDCHD 12 mg/kg SC BID, gentamicin 100 mg/kg SC BID
Method: (§4) The model was conducted as described previously ([27], [60]). In brief, n = 21 animals were used per group in the main study, and n = 3 animals per group in satellite groups for histopathological analysis. Three days before the start of the study and during the study, mice had free access to 5% glucose as drinking water. Fresh overnight colonies of E. coli from a 5% horse blood agar plate were suspended in PBS pH 7.4 to approximately 10^9 cfu/mL. Approximately 1 hour before inoculation, mice were treated orally with […] Nurofen (20 mg ibuprofen/mL corresponding to approximately 30 mg/kg) as a pain relief. Urine was removed from the bladder by gently pressing the abdomen and mice were anaesthetized with 0.15 mL Zoletil mix SC. Thereafter, the mice were inoculated. A syringe with a catheter, containing the bacterial suspension was inserted via the urethra into the bladder and 50 µL of the inoculum was slowly injected into the bladder. Hereafter, the mouse was placed in the cage and kept in a warming cabinet until fully awake (approximately 4 hours). The mice were treated with CHD (12 mg/kg SC BID), CDCHD (12 mg/kg SC BID), gentamicin (100 mg/kg SC BID), or vehicle BID (2nd dose was administered approximately 6 hours after the 1st dose on each day) on day 1, that is, first dose around 24 hours post-infection, and day 2 post-inoculation. The mice were observed during the study and scored based on their behavior and clinical signs. Clinical scoring comprised assessment of piloerection in the skin, activity (movement, curiosity), and appearance of eyes. The scoring range comprised 0–4. In our model, a maximum score of 1; thus, only mild discomfort was observed. On day 3 post-inoculation and after sampling urine, mice were euthanized by cervical dislocation, and bladder and kidneys were removed from 21 mice in each treatment group aseptically for cfu determination. The bladder and kidneys were stored at −80°C and later homogenized in 0.5 or 1 mL saline, respectively. Colony counts of urine were determined immediately. From the three additional mice in each treatment group (satellite groups), urine and plasma were sampled and frozen at −80°C, and bladders, kidneys, and liver were collected in 4% buffered formalin. Cfu was determined in urine samples within 2–3 hours after sampling. Frozen organs were thawed and homogenized with steel beads using a tissue lyser. All samples, urine, kidney, and bladder, were 10-fold diluted in saline and 20 µL spots were applied on blue agar plates in duplicates. In addition, undiluted samples of urine (2–100 μL depending on the available amount of urine) were spread on a separate agar plate to determine the colony counts at the lowest possible detection level. All agar plates were incubated for 18–22 hours at 35°C in ambient air.
as §3

[7] = Histopathological analysis of kidneys and bladder in the ascending urinary tract infection model (satellite groups); format: in vivo, mice; parameters: histopathological score Papilla / histopathological score Bladder: scale not given here
Method: as §4
Approximately 3 µm thick sections of formalin-fixed, paraffin-embedded samples of liver and kidney were analyzed blinded, and randomized to the experimental groups by a trained veterinarian. […] Kidneys were analyzed for changes in the glomeruli (not found), tubular dilation (1 = mild or up to 20% of tubuli affected, 2 = moderate or 25-40% of tubuli affected, 3 = severe 50% or more), and inflammatory infiltrate in the pelvis (1 = mild, 2 = moderate, 3 = severe).

[8] = 24 hours after infection, CHD/CDCHD 10 mg/kg SC QD or BID, vs vehicle
[9] = infected mice, CHD/CDCHD 12 mg/kg SC BID, gentamicin 100 mg/kg SC BID

SMILES: O=C(O)c1cn(C2CC2)c2cc(N3CCNCC3)c(F)cc2c1=O [ciprofloxacin, reference compound]
MIC (E. coli ATCC 25922 [1]): 0.008 µg/mL (≈ 0.0241 µM)
bacterial burden in the thigh, compared with CHD and CDCHD (E. coli ATCC 25922 [2]): exerted a stronger effect

MIC (K. pneumoniae ATCC 43816 [3]): 0.08 µg/mL (≈ 0.221 µM)
SMILES: C[C@H]1COc2c(N3CCN(C)CC3)c(F)cc3c(=O)c(C(=O)O)cn1c23 [levofloxacin, reference compound]
bacterial burden in blood (K. pneumoniae ATCC 43816 [4]; [8]): The same was found in blood
bacterial burden in the thigh (K. pneumoniae ATCC 43816 [4]; [8]): A significant reduction of bacterial burden
bacterial burden in the kidney (K. pneumoniae ATCC 43816 [4]; higher-dose studies: 10 mg/kg SC QID, 15 mg/kg SC TID, 50 mg/kg SC QD): did not reduce bacterial burden with statistical significance

SMILES: CNC(C)C1CCC(N)C(OC2C(N)CC(N)C(OC3OCC(C)(O)C(NC)C3O)C2O)O1 (stereo not drawn) [gentamicin, reference compound]
MIC (E. coli C175-94 [5]): 0.75 µg/mL (≈ 1.57 µM)
animals with sterile kidneys (E. coli C175-94 [6]; control animals 23.8%): 95.2%
bacterial burden in kidneys (E. coli C175-94 [6]; day 3, vs vehicle): strong and significant reduction
bacterial burden in the bladder (E. coli C175-94 [6]; day 3, vs vehicle): The same was observed for gentamicin
histopathological score Bladder ([7]; animal No. 1): 1
histopathological score Bladder ([7]; animal No. 2): 0
histopathological score Bladder ([7]; animal No. 3): 1
histopathological findings in bladder [7, 9]: mild, focal, submucosal inflammatory aggregates
histopathological findings in kidneys [7, 9]: only a mild tubulus dilation without inflammatory cells in the renal pelvis
